For four cell lines, relative viability results are on record in the supplement of paper PMC10307832.

What all share (assay): relative viability (nuclei count vs DMSO), 5 days (fraction); higher = more cells survive
Compound in experiment [1]: C1CN(CCN1)C2=CC=C(C=C2)C3=CN4C(=C(C=N4)C5=CC=NC6=CC=CC=C56)N=C3 [DM3189] + Cc1cc(Nc2cc(N3CCN(C)CC3)nc(Sc3ccc(NC(=O)C4CC4)cc3)n2)n[nH]1 [Tozasertib] (partner 0.1 µM)
In short, it runs like this: (§1)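 Each reported value is a median over duplicate plates. It expresses relative viability: treated-well nuclei count divided by vehicle-well nuclei count. Lung cancer cell lines in 1536-well plates were dosed by pin tool a day after seeding, alone with one drug or with a fixed anchor-drug dose plus five library-drug doses (not always all listed) in √10 steps, and nuclei were counted after 5 days.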

Compound in experiment [2]: C1CN(CCN1)C2=CC=C(C=C2)C3=CN4C(=C(C=N4)C5=CC=NC6=CC=CC=C56)N=C3 [DM3189] + COc1cccc2cc(-c3nc([C@H]4CC[C@H](C(=O)O)CC4)n4ncnc(N)c34)[nH]c12 [OSI-027] (partner 0.5 µM)
In short, it runs like this:
as §1

Compound in experiment [3]: C1CN(CCN1)C2=CC=C(C=C2)C3=CN4C(=C(C=N4)C5=CC=NC6=CC=CC=C56)N=C3 [DM3189] + Nc1nc2[nH]cc(CCc3ccc(C(=O)N[C@@H](CCC(=O)O)C(=O)O)cc3)c2c(=O)[nH]1 [Pemetrexed] (partner 0.2 µM)
The procedure, abridged: as §1

Compound in experiment [4]: C1CN(CCN1)C2=CC=C(C=C2)C3=CN4C(=C(C=N4)C5=CC=NC6=CC=CC=C56)N=C3 [DM3189] + CC(C)C[C@H](NC(=O)[C@H](Cc1ccccc1)NC(=O)c1cnccn1)B(O)O [Bortezomib] (partner 0.002 µM)
In short, it runs like this:
as §1

Compound in experiment [5]: C1CN(CCN1)C2=CC=C(C=C2)C3=CN4C(=C(C=N4)C5=CC=NC6=CC=CC=C56)N=C3 [DM3189] + CC(=O)c1c(C)c2cnc(Nc3ccc(N4CCNCC4)cn3)nc2n(C2CCCC2)c1=O [Palbociclib] (partner 0.5 µM)
In short, it runs like this: as §1

NCI-H1734: the relative viability in experiment [1] (first compound 0.08 µM) is 0.28; in experiment [1] (first compound 0.253 µM) it was 0.266; in experiment [1] (first compound 0.8 µM), 0.228; in experiment [1] (first compound 2.53 µM) it was 0.22; in experiment [2] (first compound 0.08 µM), 0.684; in experiment [2] (first compound 0.253 µM) it was 0.572. Also, the relative viability came to 0.592 in experiment [2] (first compound 0.8 µM); 0.565 in experiment [2] (first compound 2.53 µM); 0.438 in experiment [3] (first compound 0.08 µM); 0.4 in experiment [3] (first compound 0.253 µM); 0.353 in experiment [3] (first compound 0.8 µM); 0.352 in experiment [3] (first compound 2.53 µM). Also, the relative viability in experiment [4] (first compound 0.08 µM) was 1.02; in experiment [4] (first compound 0.253 µM) it was 0.982; in experiment [4] (first compound 0.8 µM) it was 0.778; in experiment [4] (first compound 2.53 µM) it was 0.775; in experiment [5] (first compound 0.08 µM) it was 0.34; in experiment [5] (first compound 0.253 µM), 0.344. Moreover, the relative viability turned out to be 0.283 in experiment [5] (first compound 0.8 µM) and 0.294 in experiment [5] (first compound 2.53 µM).

Consider EKVX, for which the relative viability in experiment [1] (first compound 0.08 µM) came to 0.44; in experiment [1] (first compound 0.253 µM), 0.407; in experiment [1] (first compound 0.8 µM), 0.449; in experiment [1] (first compound 2.53 µM) it was 0.352; in experiment [2] (first compound 0.08 µM), 0.769; in experiment [2] (first compound 0.253 µM), 0.511. Moreover, the relative viability in experiment [2] (first compound 0.8 µM) was found to be 0.729; in experiment [2] (first compound 2.53 µM) it was 0.623; in experiment [3] (first compound 0.08 µM), 0.499; in experiment [3] (first compound 0.8 µM) it was 0.302; in experiment [3] (first compound 2.53 µM), 0.368; in experiment [4] (first compound 0.08 µM), 1.1. The relative viability in experiment [4] (first compound 0.253 µM) came out at 1.01; in experiment [4] (first compound 0.8 µM), 1.04; in experiment [4] (first compound 2.53 µM), 1.2; in experiment [5] (first compound 0.08 µM), 0.402; in experiment [5] (first compound 0.8 µM), 0.291; in experiment [5] (first compound 2.53 µM), 0.393.

For the cell line HARA, the relative viability in experiment [1] (first compound 0.08 µM) worked out at 0.0946; in experiment [1] (first compound 0.253 µM), 0.0943; in experiment [1] (first compound 0.8 µM) it was 0.0953; in experiment [1] (first compound 2.53 µM), 0.0845; in experiment [2] (first compound 0.08 µM) it was 0.713; in experiment [2] (first compound 0.253 µM), 0.525. Moreover, the relative viability is 0.292 in experiment [2] (first compound 0.8 µM); 0.539 in experiment [2] (first compound 2.53 µM); 0.239 in experiment [3] (first compound 0.08 µM); 0.205 in experiment [3] (first compound 0.253 µM); 0.227 in experiment [3] (first compound 0.8 µM); 0.232 in experiment [3] (first compound 2.53 µM). Further, the relative viability in experiment [4] (first compound 0.08 µM) was found to be 1.28; in experiment [4] (first compound 0.253 µM), 1.11; in experiment [4] (first compound 0.8 µM), 1.04; in experiment [4] (first compound 2.53 µM) it was 1.2; in experiment [5] (first compound 0.08 µM) it was 0.288; in experiment [5] (first compound 0.253 µM), 0.194. Moreover, the relative viability in experiment [5] (first compound 0.8 µM) came to 0.225; in experiment [5] (first compound 2.53 µM), 0.263.

Take EMC-BAC-2: the relative viability in experiment [1] (first compound 0.08 µM) was determined as 0.302; in experiment [1] (first compound 0.253 µM), 0.283; in experiment [1] (first compound 0.8 µM), 0.254; in experiment [1] (first compound 2.53 µM), 0.323; in experiment [2] (first compound 0.08 µM) it was 0.403; in experiment [2] (first compound 0.253 µM) it was 0.341. Further, the relative viability was determined as 0.359 in experiment [2] (first compound 0.8 µM); 0.418 in experiment [2] (first compound 2.53 µM); 0.47 in experiment [3] (first compound 0.08 µM); 0.395 in experiment [3] (first compound 0.253 µM); 0.406 in experiment [3] (first compound 0.8 µM); 0.486 in experiment [3] (first compound 2.53 µM). The relative viability in experiment [4] (first compound 0.08 µM) amounted to 1.12; in experiment [4] (first compound 0.253 µM) it was 1.01; in experiment [4] (first compound 0.8 µM), 0.956; in experiment [4] (first compound 2.53 µM), 1.1; in experiment [5] (first compound 0.08 µM), 0.515; in experiment [5] (first compound 0.253 µM), 0.494. Moreover, the relative viability in experiment [5] (first compound 0.8 µM) is 0.484; in experiment [5] (first compound 2.53 µM), 0.525.
